The text below walks through data of a melting point compilation (Tetko et al.; mined from patent text by program, amines drawn as free bases though some values may be those of a salt).

The term melting point denotes the temperature, or range, at which the solid turns liquid.

A value given as a limit tells only on which side of the number the result lay.

`Cc1cn(Cc2ccc(N)cc2)cn1`: the melting point lay within 141 to 142 °C.

With `CCOCCn1c(NC2CCN(CCC3(c4ccccc4)CCN(C(=O)c4cc(OC)c(OC)c(OC)c4)C3)CC2)nc2ccccc21` (single isomer, unassigned; (-)), the melting point fell in the range of 106 to 117 °C.

As to `CCCn1c(I)c2c3c(cccc31)C1CC(NC(=O)N(CC)CC)CN(C)C1C2` (stereo not given), the melting point was in the range of 114 to 117 °C.

As to `CCCCN(CCCC)CCCOc1ccc(S(=O)(=O)c2ccc3ccccc3c2)cc1`, the melting point is 90 °C.

In turn, `CCc1nn(C(=O)OC(C)(C)C)c2cc(-c3ccc4nnn(Cc5ccc6ncccc6c5)c4n3)ccc12` displayed a melting point of 185 to 188 °C.

For `O=CN1CC2CC2(c2ccc(O)cc2)C1` (stereo not given), the melting point lay in the range of 166 to 167 °C.

In the case of `CC(C)CC(=O)Nc1ccc2oc3c(c2c1)CCCCC3`, the melting point lay within 162 to 163 °C.

Molecule `CN(C)CCOC(=O)c1cccc2cc(-c3ccccc3)oc12` gave a melting point of 56.5 to 58 °C.

On to `CS(=O)(=O)Nc1cc2oc(C#N)c(NC=O)c(=O)c2cc1Oc1ccccc1`, for which the melting point was in the range of 229 to 230 °C.

`CCOC(=O)C(C)=NNc1ccc(Cl)cc1Cl` returned a melting point of 118 to 120 °C.

`O=C1NC(c2ccc(Cl)cc2)c2ccccc2C1CCN1CCOCC1` (stereo not given) registered a melting point of 239 to 245 °C.

`CS(=O)(=O)NS(=O)(=O)c1ccc(CCCl)cc1` showed a melting point of 149 to 151 °C.

The molecule `COCCO[C@@H]1c2ccc3c(nc(C)n3C)c2O[C@H](c2ccccc2)[C@H]1OC(=O)CN(C)C` yielded a melting point of 175 °C.

Turning to `Cn1c(C(CCN2CCC(O)(c3ccccc3)CC2)c2ccc(Cl)c(Cl)c2)cc2ccccc2c1=O` (stereo not given), the melting point is 100 to 102 °C.

`O=C1CCCc2nc3ccccc3c(NCc3cccc(C(F)(F)F)c3)c21` yielded a melting point of 147 to 149 °C.

For `CCc1ccccc1NC=C1C(=O)N(c2cccc(-c3nnn[nH]3)c2)N=C1C`, the melting point was determined as 262 °C.

`CC(C)(NCCCn1ccnc1)c1ccc(-c2ccc(OCc3ccccc3)cc2)cc1` returned a melting point of 93 to 95 °C.

Take `COc1ccc(S(=O)(=O)C(Cl)(Cl)S(=O)(=O)N(C)C)cc1`: the melting point lay in the range of 145 to 147 °C.

In the case of `COc1ccc(/C=C(\C)C(=O)O)cc1`, the melting point lay in the range of 178 to 182 °C.

For the molecule `Cn1c2c(c3ccccc31)CCOC2(C)C`, the melting point was in the range of 96 to 97 °C.

For `O=C(O)c1ccc(-c2ccc(O)c(F)c2)cc1`, the melting point is 254 to 256 °C.

The molecule `CCn1c(C)c(C)cc(C(=O)O)c1=O` registered a melting point of 164 to 165 °C.

For `COc1ccc(C(=O)N2CCC[C@H]2C(OC)OC)cc1`, the melting point lay in the range of 51 to 52.5 °C.

Regarding `Cc1c(NC(=O)CC(C)(C)C)c(C)c2c(c1C(C)O)OCC2c1ccc(C(C)C)cc1` (stereo not given), the melting point lay in the range of 156 to 157 °C.

As for `CCOCC1COc2cc3c(O)c(C#N)cnc3cc2O1` (stereo not given), the melting point lay in the range of 248 to 254 °C.

As to `Cc1nc(-c2cc3[nH]c(=O)c(=O)[nH]c3cc2[N+](=O)[O-])c[nH]1`, the melting point is greater than 300 °C.

In the case of `CN(O)C(=O)NCCc1ccc(Cl)c(Cl)c1`, the melting point was 108 to 109 °C.

For the molecule `COc1cccc(CNC(=O)c2[nH]c3ccc(Cl)cc3c2S(=O)(=O)c2nccs2)c1`, the melting point lay in the range of 205 to 209 °C.

`CCN(CC)CCCC1CCCN(C(=O)N2c3ccccc3NC(=O)c3cccnc32)C1` (stereo not given): the melting point lay within 123 to 125 °C.

On to `CC(C)(C)OC(=O)N1CC(O)C(N2CCC(Cc3ccc(Cl)cc3)CC2)C1` (stereo not given), for which the melting point lay in the range of 99 to 102 °C.

For the molecule `CCCCCCCCCCCCc1nnn(C(C(=O)O)c2ccccc2)n1` (stereo not given), the melting point fell in the range of 76 to 78 °C.

For the molecule `N#CC1CC2CCC(C1)N2Cc1ccccc1` (stereo not given), the melting point is 119 to 120 °C.

Molecule `COc1cc(O)c(C#N)c2cc(-c3ccc(O)cc3)oc12` yielded a melting point of 286 to 288 °C.

As for `CN(C1=NC(=O)CS1)c1ccc(C(O)(C(F)(F)F)C(F)(F)F)cc1`, the melting point was in the range of 240 to 242 °C.

`O=C(O)CCC(=O)N(CCCOc1ccc(C(=O)O)cc1)c1ccc(Cl)cc1` gave a melting point of 155 to 158 °C.

As to `O=Cc1cccc2nnsc12`, the melting point fell in the range of 134 to 136 °C.

As for `O=C(O)C1Cc2ccccc2N1c1ncccn1` (stereo not given), the melting point lay within 249 to 250 °C.

Take `COc1cc(NC(=O)OC(C)(C)C)c(NC(=O)CC(=O)c2cccc(C#N)c2)cc1C#Cc1ccccc1`: the melting point came to 169 °C.

Regarding `COc1cc(COc2nn(-c3ccccc3)cc2C(N)=O)ccc1OCc1nc(-c2ccco2)oc1C`, the melting point was in the range of 175 to 176 °C.

With `CCOC(=O)C(=O)Nc1cc(C)nc(N2CCc3ccccc3C2)c1`, the melting point lay in the range of 128 to 129 °C.

Molecule `COC(=O)c1ccc(OCC(O)c2ccc3c(c2)C(C)(C)CCS3)cc1O` (stereo not given) returned a melting point of 113 to 115 °C.

For `C#CCn1nnc(SC(c2ccccc2)c2ccccc2)n1`, the melting point was in the range of 85 to 86 °C.

Turning to `CN(C)C=CC(=O)C(=O)c1ccccc1`, the melting point was 88 °C.

The molecule `CCOC(=O)c1ccc(-c2c[nH]c(-c3ccc4c(c3)C(C)(C)CCC4(C)C)n2)cc1` returned a melting point of 186 to 188 °C.

Turning to `O=C(O)CN1CCN2c3ccccc3Cn3cccc3C2C1` (stereo not given), the melting point is 249 to 250 °C.

As for `CCCOc1ccccc1-c1ncc(C(=O)O)c(=O)[nH]1`, the melting point was 203 to 206 °C.

As for `COCCc1nc2c(N)nc3c(c2n1CCCNC(=O)c1ccccc1)CCCC3`, the melting point fell in the range of 168 to 170 °C.

With `CN(O)C(=O)c1ccccc1`, the melting point was less than 20 °C.

On to `O=CN(O)C(Cc1cccc(CC(=O)O)c1)CS(=O)(=O)c1ccc(Oc2ccc(OC(F)(F)F)cc2)cc1` (stereo not given), for which the melting point was 138 to 140 °C.

Take `CC(=O)c1cc(I)c2c(c1)C=CC(C)(C)O2`: the melting point came out at 102 °C.

The molecule `COCCOc1ccc2c(c1)OCC21C(=O)N(Cc2ccccn2)c2ccccc21` (stereo not given) gave a melting point of 94 to 95 °C.

The molecule `C=CC[C@@H](C(=O)N[C@H](C(=O)N[C@H](C)c1ccccc1)C(C)(C)C)[C@@H]1OC(C)(C)OC1=O` showed a melting point of 178 to 180 °C.

In turn, `CCCCCCCCC(C)C(N)=O` (stereo not given) returned a melting point of 80 to 81 °C.

Molecule `COc1cc2c(cc1CCCCN(C)C)[nH]c1cc(-c3ccccc3Cl)c3c(c12)C(=O)NC3=O` gave a melting point of 162 to 164 °C.

The molecule `COc1ccc(-n2c3ccccc3c3cc(C=C(C#N)c4cc(F)cc(F)c4)ccc32)cc1` had a melting point of 200 to 203 °C.

Molecule `OC1CCCc2nc3ccccc3c(NCc3ccc(C(F)(F)F)cc3)c21` (stereo not given) displayed a melting point of 174 to 176 °C.

Molecule `CSC(C(N)=O)c1ccccc1N` (stereo not given) displayed a melting point of 98.5 to 99.5 °C.

The molecule `Cc1cc(-c2c(-c3ccc(S(N)(=O)=O)cc3)cnn(-c3ccc(F)c(F)c3)c2=O)ccc1F` came in with a melting point of 243 to 245 °C.

Take `CCCCCC1CCC(CCc2ccc(-c3ncc(O)cn3)c(F)c2F)CC1` (stereo not given): the melting point stood at 157 °C.

`CC(=O)N(C(=O)C(C)(C)C)C1CC(C)(C)N(OC(=O)C(C)(C)C)C(C)(C)C1` had a melting point of 169 to 173 °C.

`O=C1NC(=S)S/C1=C\c1ccccc1Nc1cccc(C(F)(F)F)c1` displayed a melting point of 234 to 236 °C.

Consider `Fc1cccc(-c2nc(-c3ccccn3)no2)c1`, for which the melting point was in the range of 88 to 98 °C.

In turn, `Cc1ccc(S(=O)(=O)N2CCC(c3cccc4c3CCCC(C(=O)Nc3ccc(CN(C)C5CCOCC5)cc3)=C4)CC2)cc1` yielded a melting point of 175 to 176 °C.

With `FC(F)(F)Oc1ccc2nccc(N3CCN(C(=S)NCc4ccccc4)CC3)c2c1`, the melting point was in the range of 70 to 71 °C.

On to `Nc1ccc(C=C2NC(=O)NC2=O)cc1`, for which the melting point came out at 300 °C.

Molecule `Cc1ccc(S(=O)(=O)N2[C@@H](C(N)=O)CC[C@H]2c2ccccc2)cc1` (racemic) displayed a melting point of 130 °C.

`CC1(C)OC[C@H](Cc2ccccc2)N1C(=O)Cn1cc(I)cn1` showed a melting point of 117 to 120 °C.

Molecule `CCc1c(C)cc(C#N)c(N)c1C#N` yielded a melting point of 121 to 123 °C.

On to `O=C(O)C(=O)c1ccc(OCCCn2c(=O)c3ccccc3c3ccccc32)cc1`, for which the melting point lay within 202 to 204 °C.

Molecule `COC(=O)c1csc(C(=O)CBr)c1OC(=O)c1ccccc1` came in with a melting point of 115 to 118 °C.

In the case of `Brc1ccc(-c2csc(Br)n2)cc1`, the melting point fell in the range of 117 to 119 °C.

With `CCc1cc(CC)c2ccc(=O)n(CCN(C)C)c2n1`, the melting point fell in the range of 59.5 to 61 °C.

With `CCCCN(Cc1ccc(-c2ccccc2-c2nnn[nH]2)cc1)c1nc(C)ncc1C(=O)OCC`, the melting point is 164 to 166 °C.

In turn, `COc1cc(NC(=O)NS(=O)(=O)c2ccccc2C)nc(OC)n1` had a melting point of 174 to 175 °C.

Take `CCOc1cc2c(Cl)ncnc2cc1OC(C)C`: the melting point was 104 to 106 °C.

`CCOC(=O)c1cn(-c2cc(OC)c(F)cc2[N+](=O)[O-])c2c(Cl)c(F)c(F)cc2c1=O` showed a melting point of 244 to 248 °C.

In turn, `CC(=O)CCNc1ccc(-c2cc(-c3ccc(C(=O)O)cc3)ccc2OCCCCO)cc1C(C)(C)C` yielded a melting point of 75 °C.

Molecule `Cc1ccc2nc(CN3CCN(c4ccc(F)cc4)CC3)cn2c1` came in with a melting point of 112 °C.

Take `CC(C)(C)OC(=O)N1CCn2c(c(C(N)=O)c(Cl)c2C2CC2)C1`: the melting point lay in the range of 102 to 104 °C.

For the molecule `NS(=O)(=O)c1ccc(F)c(C(O)CCl)c1` (stereo not given), the melting point was found to be 112 °C.

For `COc1ccc(C(O)C(C)N)cc1OC` (stereo not given), the melting point is 131 to 132 °C.

The molecule `CNC(=S)N1CC=C(C(C)(C)C)CC1` registered a melting point of 76 to 78 °C.

Consider `CCc1sc2c(c1S(=O)(=O)c1ccc(O)cc1)CC(Cc1ccccc1Cl)NC2` (stereo not given), for which the melting point turned out to be 176 °C.

As to `c1cn(-c2cc(-n3cnc4cc(-c5ccoc5)ccc43)ncn2)cn1`, the melting point was 294 to 296 °C.

The molecule `COC(=O)CNC(=O)c1cncc(F)c1` returned a melting point of 80 to 82 °C.

`O=C(O)c1[nH]c(=O)[nH]c(=O)c1[N+](=O)[O-]` displayed a melting point greater than 300 °C.

As to `N=C(N)NC(=O)Cn1c(Cc2ccco2)ccc1-c1ccccc1`, the melting point lay within 80 to 82 °C.

`COC(=O)C1(C(=O)OC)CCn2c(C(=O)c3ccccc3)cc(Br)c21` came in with a melting point of 109 to 110 °C.

Regarding `c1ccc(-c2cnc3c(c2)ncn3-c2cccc(-c3cccnc3)c2)cc1`, the melting point was in the range of 179 to 180 °C.

Consider `O=C1C(=O)c2ccc(Cl)cc2C2=C1SCC1(CCNCC1)O2`, for which the melting point was greater than 300 °C.
